Measured values published in BindingDB's records for patent US20250066370 (Deutsches Krebsforschungszentrum, 2025).

Legend:
[1] = target: Cyclin-K/Cyclin-dependent kinase 12 (Human, UniProt Q9NYV4); test: CDK12/CycK High ATP Kinase Assay
Text: For the assay 50 nanoL of a 100 fold concentrated solution of the test compound in DMSO was pipetted into either a black low volume 384 well microtiter plate or a black 1536 well microtiter plate (both Greiner Bio-One, Frickenhausen, Germany), 2 microL of a solution of CDK12/CycK in aqueous assay buffer [25 millimol/L HEPES pH 7.5, 20 millimol/L MgCl2, 5 millimol/L β-glycerophosphate, 2 millimol/L EGTA, 1.0 millimol/L dithiothreitol, 0.01% (v/v) Nonidet-P40 (Sigma), 0.01% (w/v) bovine serum albumin] were added and the mixture was incubated for 15 min at 22° C. to allow pre-binding of the test compounds to the enzyme before the start of the kinase reaction. Then the kinase reaction was started by the addition of 3 microL of a solution ATP (3.33 millimol/L=>final conc. in the 5 microL assay volume is 2 millimol/L) and substrate (1.67 micromol/L=>final conc. in the 5 microL assay volume is 1 micromol/L) in assay buffer and the resulting mixture was incubated for a reaction time of 60 min at 22° C. The concentration of CDK12/CycK was adjusted depending of the activity of the enzyme lot and was chosen appropriate to have the assay in the linear range, typical concentrations were about 0.75 nanomol/L. The reaction was stopped by the addition of 3 microL of a solution of TR-FRET detection reagents (125 nanomol/L streptavidine-XL665 [Cisbio Bioassays, Codolet, France] and 0.67 nanomol/L anti-Phospho-c-Myc (Ser 62) (E1J4K)-antibody from Cell Signalling [#13748] and 2 nanomol/L LANCE EU-W1024 labeled anti-rabbit IgG antibody [Perkin-Elmer, product no. 0083]) in an aqueous EDTA-solution (133 millimol/L EDTA, 0.27% (w/v) bovine serum albumin in 66.7 millimol/L HEPES pH 7.5).The resulting mixture was incubated 1 h at 22° C. to allow the formation of complex between the phosphorylated biotinylated peptide and the detection reagents. Subsequently the amount of phosphorylated substrate was evaluated by measurement of the resonance energy transfer from the Eu-chelate to the streptavidine-XL. Therefore, the fluorescence emissions at 620 nm and 665 nm after excitation at 350 nm was measured in a TR-FRET reader, e.g. a Pherastar FS (BMG Labtechnologies, Offenburg, Germany) or a Viewlux (Perkin-Elmer).

[2] = target: Cyclin-T1/Cyclin-dependent kinase 9 (Homo sapiens, UniProt P50750); test: CDK9/CycT1 High ATP Kinase Assay
Chain of Cyclin-T1/Cyclin-dependent kinase 9 (O60563 whole entry): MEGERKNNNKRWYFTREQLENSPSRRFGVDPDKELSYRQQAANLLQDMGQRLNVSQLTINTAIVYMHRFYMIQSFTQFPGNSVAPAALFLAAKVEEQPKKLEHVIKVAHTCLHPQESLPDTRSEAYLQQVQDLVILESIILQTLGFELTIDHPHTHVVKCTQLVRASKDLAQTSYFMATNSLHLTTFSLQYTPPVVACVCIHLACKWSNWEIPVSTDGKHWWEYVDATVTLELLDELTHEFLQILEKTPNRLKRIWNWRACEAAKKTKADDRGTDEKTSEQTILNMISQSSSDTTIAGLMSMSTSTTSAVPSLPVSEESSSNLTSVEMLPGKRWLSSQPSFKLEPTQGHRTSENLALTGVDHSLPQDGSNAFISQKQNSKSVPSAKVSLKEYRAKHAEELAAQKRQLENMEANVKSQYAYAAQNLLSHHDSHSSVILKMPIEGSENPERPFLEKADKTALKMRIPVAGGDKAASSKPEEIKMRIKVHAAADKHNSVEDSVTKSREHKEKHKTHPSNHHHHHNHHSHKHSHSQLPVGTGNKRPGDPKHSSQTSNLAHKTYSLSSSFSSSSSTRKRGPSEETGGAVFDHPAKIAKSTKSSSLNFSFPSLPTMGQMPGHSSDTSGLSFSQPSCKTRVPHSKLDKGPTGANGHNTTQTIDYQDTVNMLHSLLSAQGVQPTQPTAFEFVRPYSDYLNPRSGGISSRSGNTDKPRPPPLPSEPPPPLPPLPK
Chain of Cyclin-T1/Cyclin-dependent kinase 9 (P50750 whole entry): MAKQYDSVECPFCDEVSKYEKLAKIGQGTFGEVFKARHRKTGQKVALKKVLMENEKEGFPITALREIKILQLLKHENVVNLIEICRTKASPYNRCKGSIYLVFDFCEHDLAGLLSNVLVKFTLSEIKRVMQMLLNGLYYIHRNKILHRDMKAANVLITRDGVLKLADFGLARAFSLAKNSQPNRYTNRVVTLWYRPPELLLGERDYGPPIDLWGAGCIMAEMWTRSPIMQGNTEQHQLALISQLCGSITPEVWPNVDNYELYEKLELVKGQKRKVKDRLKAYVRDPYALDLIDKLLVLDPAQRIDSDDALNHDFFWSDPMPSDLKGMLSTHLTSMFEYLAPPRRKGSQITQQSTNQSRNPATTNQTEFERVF
Method: For the assay 50 nanoL of a 100 fold concentrated solution of the test compound in DMSO was pipetted into either a black low volume 384 well microtiter plate or a black 1536 well microtiter plate (both Greiner Bio-One, Frickenhausen, Germany), 2 microL of a solution of CDK9/CycT1 in aqueous assay buffer [50 millimol/L Tris/HCl PH 8.0, 10 millimol/L MgCl2, 1.0 millimol/L dithiothreitol, 0.1 millimol/L sodium ortho-vanadate, 0.01% (v/v) Nonidet-P40 (Sigma)] were added and the mixture was incubated for 15 min at 22° C. to allow pre-binding of the test compounds to the enzyme before the start of the kinase reaction. Then the kinase reaction was started by the addition of 3 microL of a solution of adenosine-tri-phosphate (ATP, 3.3 millimol/L=>final conc. in the 5 microL assay volume is 2 millimol/L) and substrate (1.25 micromol/L=>final conc. in the 5 microL assay volume is 0.75 micromol/L) in assay buffer and the resulting mixture was incubated for a reaction time of 25 min at 22° C. The concentration of CDK9/CycT1 was adjusted depending of the activity of the enzyme lot and was chosen appropriate to have the assay in the linear range, typical concentrations were in the range of 0.5 microg/ml. […] Subsequently the amount of phosphorylated substrate was evaluated by measurement of the resonance energy transfer from the Eu-chelate to the streptavidine-XL. Therefore, the fluorescence emissions at 620 nm and 665 nm after excitation at 350 nm was measured in a TR-FRET reader, e.g. a Pherastar (BMG Labtechnologies, Offenburg, Germany) or a Viewlux (Perkin-Elmer).

[3] = target: Cyclin-dependent kinase 2/G1/S-specific cyclin-E1 (Homo sapiens, UniProt P24941); test: CDK2/CycE Kinase Assay
Method: For the assay 50 nanoL of a 100 fold concentrated solution of the test compound in DMSO was pipetted into a black low volume 384 well microtiter plate or a black 1536 well microtiter plate (both Greiner Bio-One, Frickenhausen, Germany), 2 microL of a solution of CDK2/CycE in aqueous assay buffer [50 millimol/L Tris/HCl PH 8.0, 10 millimol/L MgCl2, 1.0 millimol/L dithiothreitol, 0.1 millimol/L sodium ortho-vanadate, 0.01% (v/v) Nonidet-P40 (Sigma)] were added and the mixture was incubated for 15 min at 22° C. to allow pre-binding of the test compounds to the enzyme before the start of the kinase reaction. Then the kinase reaction was started by the addition of 3 microL of a solution of adenosine-tri-phosphate (ATP, 3.33 millimol/L=>final conc. in the 5 microL assay volume is 2 millimol/L) and substrate (1.25 micromol/L=>final conc. in the 5 microL assay volume is 0.75 micromol/L) in assay buffer and the resulting mixture was incubated for a reaction time of 25 min at 22° C. The concentration of CDK2/CycE was adjusted depending of the activity of the enzyme lot and was chosen appropriate to have the assay in the linear range, typical concentrations were in the range of 10 ng/ml. The reaction was stopped by the addition of 3 microL of a solution of TR-FRET detection reagents (0.333 micromol/L streptavidine-XL665 [Cisbio Bioassays, Codolet, France] and 1.67 nanomol/L anti-RB (pSer807/pSer811)-antibody from BD Pharmingen [#558389] and 2 nanomol/L LANCE EU-W1024 labeled anti-mouse IgG antibody [Perkin-Elmer, product no. AD0077, as an alternative a Terbium-cryptate-labeled anti-mouse IgG antibody from Cisbio Bioassays can be used]) in an aqueous EDTA-solution (167 millimol/L EDTA, 0.2% (w/v) bovine serum albumin in 100 millimol/L HEPES pH 7.5).The resulting mixture was incubated 1 h at 22° C. to allow the formation of complex between the phosphorylated biotinylated peptide and the detection reagents. Subsequently the amount of phosphorylated substrate was evaluated by measurement of the resonance energy transfer from the Eu-chelate to the streptavidine-XL. Therefore, the fluorescence emissions at 620 nm and 665 nm after excitation at 350 nm was measured in a TR-FRET reader, e.g. a Pherastar (BMG Labtechnologies, Offenburg, Germany) or a Viewlux (Perkin-Elmer).

Chain of Cyclin-K/Cyclin-dependent kinase 12 (O75909 whole entry): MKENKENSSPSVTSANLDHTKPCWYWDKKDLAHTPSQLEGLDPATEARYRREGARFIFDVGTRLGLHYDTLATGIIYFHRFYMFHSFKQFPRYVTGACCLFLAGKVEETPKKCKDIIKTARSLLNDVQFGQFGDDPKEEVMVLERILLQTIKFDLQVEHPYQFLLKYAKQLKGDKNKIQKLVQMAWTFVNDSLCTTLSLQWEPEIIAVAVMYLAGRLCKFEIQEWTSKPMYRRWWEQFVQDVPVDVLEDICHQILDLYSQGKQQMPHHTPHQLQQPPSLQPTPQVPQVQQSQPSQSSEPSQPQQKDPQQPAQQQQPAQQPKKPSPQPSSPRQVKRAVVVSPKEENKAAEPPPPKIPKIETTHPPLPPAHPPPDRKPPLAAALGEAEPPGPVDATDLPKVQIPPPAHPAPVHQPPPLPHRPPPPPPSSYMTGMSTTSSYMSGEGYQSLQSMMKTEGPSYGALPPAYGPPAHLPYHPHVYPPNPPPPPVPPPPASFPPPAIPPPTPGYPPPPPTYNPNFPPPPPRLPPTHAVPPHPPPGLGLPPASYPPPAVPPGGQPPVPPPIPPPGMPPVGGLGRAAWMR
Chain of Cyclin-K/Cyclin-dependent kinase 12 (Q9NYV4 whole entry): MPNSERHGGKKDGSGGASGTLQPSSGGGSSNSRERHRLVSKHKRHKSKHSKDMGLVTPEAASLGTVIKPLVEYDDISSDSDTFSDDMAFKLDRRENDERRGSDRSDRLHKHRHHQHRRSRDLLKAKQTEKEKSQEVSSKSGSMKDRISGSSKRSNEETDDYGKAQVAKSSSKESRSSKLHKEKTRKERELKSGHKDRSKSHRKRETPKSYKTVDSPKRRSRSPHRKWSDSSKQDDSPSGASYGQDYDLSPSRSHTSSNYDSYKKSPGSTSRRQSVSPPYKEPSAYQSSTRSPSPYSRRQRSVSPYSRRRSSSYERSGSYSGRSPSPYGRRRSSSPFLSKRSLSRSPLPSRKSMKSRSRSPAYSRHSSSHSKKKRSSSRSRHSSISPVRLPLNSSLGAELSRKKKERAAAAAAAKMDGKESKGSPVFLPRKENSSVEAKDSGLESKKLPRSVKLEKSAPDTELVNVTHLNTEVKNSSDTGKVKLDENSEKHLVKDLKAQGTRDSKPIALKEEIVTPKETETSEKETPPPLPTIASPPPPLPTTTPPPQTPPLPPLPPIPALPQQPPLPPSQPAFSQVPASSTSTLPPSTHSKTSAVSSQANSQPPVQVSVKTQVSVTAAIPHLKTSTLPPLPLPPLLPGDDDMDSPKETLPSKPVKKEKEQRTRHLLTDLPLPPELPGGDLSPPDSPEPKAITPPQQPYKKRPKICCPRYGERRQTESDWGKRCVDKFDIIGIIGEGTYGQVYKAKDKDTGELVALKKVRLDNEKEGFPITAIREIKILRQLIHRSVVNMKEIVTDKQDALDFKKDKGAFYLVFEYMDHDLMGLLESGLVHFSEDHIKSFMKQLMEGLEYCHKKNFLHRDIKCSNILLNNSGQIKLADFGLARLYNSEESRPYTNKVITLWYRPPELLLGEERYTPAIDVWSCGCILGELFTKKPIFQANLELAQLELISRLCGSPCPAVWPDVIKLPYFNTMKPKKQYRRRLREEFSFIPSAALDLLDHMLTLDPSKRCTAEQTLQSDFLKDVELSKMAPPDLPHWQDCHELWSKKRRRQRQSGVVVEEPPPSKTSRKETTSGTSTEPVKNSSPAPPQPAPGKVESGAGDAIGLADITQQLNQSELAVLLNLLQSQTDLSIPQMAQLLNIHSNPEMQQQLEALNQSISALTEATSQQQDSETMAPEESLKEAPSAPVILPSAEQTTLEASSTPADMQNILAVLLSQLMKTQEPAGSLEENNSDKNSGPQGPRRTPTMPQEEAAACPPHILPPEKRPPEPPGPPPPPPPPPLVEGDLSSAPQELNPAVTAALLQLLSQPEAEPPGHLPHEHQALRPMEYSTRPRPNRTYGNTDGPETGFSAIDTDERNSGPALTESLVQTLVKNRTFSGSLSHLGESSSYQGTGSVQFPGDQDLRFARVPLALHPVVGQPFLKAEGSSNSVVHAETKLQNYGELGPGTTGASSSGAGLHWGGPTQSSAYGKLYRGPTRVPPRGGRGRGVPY

Row | SMILES | IC50 [1] [nM] | IC50 [2] [nM] | IC50 [3] [nM]
1 | FC(F)(F)c1ccc(-c2nnc(CNc3nc(N4CCOCC4)nc4c(C(F)(F)F)cnn34)[nH]2)cn1 [US20250066370, Example 16] | 79.1 | – | 4050
2 | COc1ccc(-c2nnc(CNc3nc(N4CCOCC4)nn4c(C(F)(F)F)cnc34)[nH]2)cn1 [US20250066370, Example 18] | 41.6 | 340 | > 5710
3 | FC(F)(F)c1ccc(-c2cnc(CNc3nc(N4CCOCC4)nc4c(C(F)(F)F)cnn34)[nH]2)cn1 [US20250066370, Example 24] | 15.1 | 3560 | 7820

Now those with a lower IC50 [1], led by results:

Row | IC50 [1] [nM] | IC50 [2] [nM] | IC50 [3] [nM] | SMILES
4 | 12.3 | 2780 | 16300 | COc1ccc(-c2cnc(CNc3nc(N4CCOCC4)nn4c(C(F)(F)F)cnc34)[nH]2)cc1 [US20250066370, Example 13]
5 | 5.96 | – | 6720 | FC(F)(F)Oc1ccc(-c2nnc(CNc3nc(N4CCOCC4)nc4c(C(F)(F)F)cnn34)[nH]2)cn1 [US20250066370, Example 17]
